What was measured:
Test in all cases: MIC, broth microdilution (CLSI), substance alone or ATB combined with compound at 4 or 8 μg/mL
SPN 49619 = type: cell-based, S. pneumoniae; details: SPN 49619
Summary of the method: (§1)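 Per CLSI-M7-A7, MICs are determined in cation-adjusted Mueller-Hinton broth with a final inoculum of 5·10^5 CFU/mL. Plates incubate 16-20 h at 35° C in air and are read by eye. Fosfomycin assays carry 25 μg/ml glucose-6-phosphate.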

PAE UFR90 = type: cell-based, P. aeruginosa; details: PAE UFR90
Summary of the method: as §1

PAE UFR48 = type: cell-based, P. aeruginosa; details: PAE UFR48
Summary of the method: as §1

PAE 105250 = type: cell-based, P. aeruginosa; details: PAE 105250
Summary of the method: as §1

ECO UFR39 = type: cell-based, E. coli; details: ECO UFR39
Summary of the method: as §1

ECO 190317 = type: cell-based, E. coli; details: ECO 190317
Summary of the method: as §1

For `C[C@@H](O)[C@H]1C(=O)N2C(C(=O)O)=C(SCCN=CN)C[C@H]12` [IMI], the “MIC ATB alone” value (SPN 49619; antibiotic alone) was 0.063 µg/mL, the “MIC ATB combined with Example 1 @8 μg/ml” value (SPN 49619; with Example 1 @8 μg/ml) was “<=0.031 μg/mL” and the “MIC ATB combined with Example 1 @8 μg/ml” value (SPN 49619; with Example 1 at 8 μg/ml) was “<=0.031 μg/mL”. For the same compound, the “MIC ATB combined with Example 7 @8 μgml” value (SPN 49619; with Example 7 at 8 μg/ml) was “<=0.031 μg/mL”, the “MIC ATB combined with Example 9 @4 μg/ml” value (SPN 49619; with Example 9 @4 μg/ml) was under 0.031 µg/mL and the “MIC ATB combined with Example 9 @4 μg/ml” value (SPN 49619; with Example 9 at 4 μg/ml) was under 0.031 µg/mL. The “MIC ATB combined with Example 11 @8 μg/ml” value (SPN 49619; with Example 11 at 8 μg/ml) was “<=0.031 μg/mL”, the “MIC ATB combined with Example 12 @8 μg/ml” value (SPN 49619; with Example 12 at 8 μg/ml) was under 0.031 µg/mL and the “MIC ATB combined with Example 13 @8 μg/ml” value (SPN 49619; with Example 13 at 8 μg/ml) was “<=0.031 μg/mL”. For the same compound, the “MIC ATB combined with Example 14 @8 μg/ml” value (SPN 49619; with Example 14 at 8 μg/ml) was under 0.031 µg/mL, the “MIC ATB combined with Example 15 @4 μgml” value (SPN 49619; with Example 15 at 4 μg/ml) was under 0.031 µg/mL and the “MIC ATB combined with Example 16 @4 μg/ml” value (SPN 49619; with Example 16 at 4 μg/ml) was under 0.031 µg/mL. For the same compound, the “MIC ATB alone” value (PAE UFR90; antibiotic alone) was 2 µg/mL, the “MIC ATB combined with Example 1 @8 μg/ml” value (PAE UFR90; with Example 1 @8 μg/ml) was under 0.031 µg/mL and the “MIC ATB combined with Example 1 @8 μg/ml” value (PAE UFR90; with Example 1 at 8 μg/ml) was under 0.031 µg/mL. The “MIC ATB combined with Example 7 @8 μgml” value (PAE UFR90; with Example 7 at 8 μg/ml) was 32 µg/mL, the “MIC ATB combined with Example 9 @4 μg/ml” value (PAE UFR90; with Example 9 @4 μg/ml) was 1 µg/mL and the “MIC ATB combined with Example 9 @4 μg/ml” value (PAE UFR90; with Example 9 at 4 μg/ml) was 1 µg/mL. For the same compound, the “MIC ATB combined with Example 11 @8 μg/ml” value (PAE UFR90; with Example 11 at 8 μg/ml) was 1 µg/mL, the “MIC ATB combined with Example 12 @8 μg/ml” value (PAE UFR90; with Example 12 at 8 μg/ml) was 2 µg/mL and the “MIC ATB combined with Example 13 @8 μg/ml” value (PAE UFR90; with Example 13 at 8 μg/ml) was 16 µg/mL. The “MIC ATB combined with Example 14 @8 μg/ml” value (PAE UFR90; with Example 14 at 8 μg/ml) was 2 µg/mL, the “MIC ATB combined with Example 15 @4 μgml” value (PAE UFR90; with Example 15 at 4 μg/ml) was 2 µg/mL and the “MIC ATB combined with Example 16 @4 μg/ml” value (PAE UFR90; with Example 16 at 4 μg/ml) was 4 µg/mL. The “MIC ATB alone” value (PAE UFR48; antibiotic alone) was 8 µg/mL, the “MIC ATB combined with Example 1 @8 μg/ml” value (PAE UFR48; with Example 1 @8 μg/ml) was under 0.031 µg/mL and the “MIC ATB combined with Example 1 @8 μg/ml” value (PAE UFR48; with Example 1 at 8 μg/ml) was under 0.031 µg/mL. For the same compound, the “MIC ATB combined with Example 7 @8 μgml” value (PAE UFR48; with Example 7 at 8 μg/ml) was over 32 µg/mL, the “MIC ATB combined with Example 9 @4 μg/ml” value (PAE UFR48; with Example 9 @4 μg/ml) was 8 µg/mL and the “MIC ATB combined with Example 9 @4 μg/ml” value (PAE UFR48; with Example 9 at 4 μg/ml) was 16 µg/mL. For the same compound, the “MIC ATB combined with Example 11 @8 μg/ml” value (PAE UFR48; with Example 11 at 8 μg/ml) was over 32 µg/mL, the “MIC ATB combined with Example 12 @8 μg/ml” value (PAE UFR48; with Example 12 at 8 μg/ml) was over 32 µg/mL and the “MIC ATB combined with Example 13 @8 μg/ml” value (PAE UFR48; with Example 13 at 8 μg/ml) was over 32 µg/mL. For the same compound, the “MIC ATB combined with Example 14 @8 μg/ml” value (PAE UFR48; with Example 14 at 8 μg/ml) was over 32 µg/mL, the “MIC ATB combined with Example 15 @4 μgml” value (PAE UFR48; with Example 15 at 4 μg/ml) was over 32 µg/mL and the “MIC ATB combined with Example 16 @4 μg/ml” value (PAE UFR48; with Example 16 at 4 μg/ml) was over 32 µg/mL. For the same compound, the “MIC ATB alone” value (PAE 105250; antibiotic alone) was 1 µg/mL, the “MIC ATB combined with Example 1 @8 μg/ml” value (PAE 105250; with Example 1 @8 μg/ml) was “<=0.031 μg/mL” and the “MIC ATB combined with Example 1 @8 μg/ml” value (PAE 105250; with Example 1 at 8 μg/ml) was “<=0.031 μg/mL”. For the same compound, the “MIC ATB combined with Example 7 @8 μgml” value (PAE 105250; with Example 7 at 8 μg/ml) was 16 µg/mL, the “MIC ATB combined with Example 9 @4 μg/ml” value (PAE 105250; with Example 9 @4 μg/ml) was 1 µg/mL and the “MIC ATB combined with Example 9 @4 μg/ml” value (PAE 105250; with Example 9 at 4 μg/ml) was 1 µg/mL. The “MIC ATB combined with Example 11 @8 μg/ml” value (PAE 105250; with Example 11 at 8 μg/ml) was 1 µg/mL, the “MIC ATB combined with Example 12 @8 μg/ml” value (PAE 105250; with Example 12 at 8 μg/ml) was 2 µg/mL and the “MIC ATB combined with Example 13 @8 μg/ml” value (PAE 105250; with Example 13 at 8 μg/ml) was 8 µg/mL. The “MIC ATB combined with Example 14 @8 μg/ml” value (PAE 105250; with Example 14 at 8 μg/ml) was 2 µg/mL, the “MIC ATB combined with Example 15 @4 μgml” value (PAE 105250; with Example 15 at 4 μg/ml) was 2 µg/mL and the “MIC ATB combined with Example 16 @4 μg/ml” value (PAE 105250; with Example 16 at 4 μg/ml) was 2 µg/mL. The “MIC ATB alone” value (ECO UFR39; antibiotic alone) was 16 µg/mL, the “MIC ATB combined with Example 1 @8 μg/ml” value (ECO UFR39; with Example 1 @8 μg/ml) was under 0.031 µg/mL and the “MIC ATB combined with Example 1 @8 μg/ml” value (ECO UFR39; with Example 1 at 8 μg/ml) was under 0.031 µg/mL. The “MIC ATB combined with Example 7 @8 μgml” value (ECO UFR39; with Example 7 at 8 μg/ml) was under 0.031 µg/mL, the “MIC ATB combined with Example 9 @4 μg/ml” value (ECO UFR39; with Example 9 @4 μg/ml) was under 0.031 µg/mL and the “MIC ATB combined with Example 9 @4 μg/ml” value (ECO UFR39; with Example 9 at 4 μg/ml) was under 0.031 µg/mL. The “MIC ATB combined with Example 11 @8 μg/ml” value (ECO UFR39; with Example 11 at 8 μg/ml) was under 0.031 µg/mL, the “MIC ATB combined with Example 12 @8 μg/ml” value (ECO UFR39; with Example 12 at 8 μg/ml) was under 0.031 µg/mL and the “MIC ATB combined with Example 13 @8 μg/ml” value (ECO UFR39; with Example 13 at 8 μg/ml) was under 0.031 µg/mL. For the same compound, the “MIC ATB combined with Example 14 @8 μg/ml” value (ECO UFR39; with Example 14 at 8 μg/ml) was under 0.031 µg/mL, the “MIC ATB combined with Example 15 @4 μgml” value (ECO UFR39; with Example 15 at 4 μg/ml) was under 0.031 µg/mL and the “MIC ATB combined with Example 16 @4 μg/ml” value (ECO UFR39; with Example 16 at 4 μg/ml) was under 0.031 µg/mL. For the same compound, the “MIC ATB alone” value (ECO 190317; antibiotic alone) was 0.125 µg/mL, the “MIC ATB combined with Example 1 @8 μg/ml” value (ECO 190317; with Example 1 @8 μg/ml) was under 0.031 µg/mL and the “MIC ATB combined with Example 1 @8 μg/ml” value (ECO 190317; with Example 1 at 8 μg/ml) was under 0.031 µg/mL. For the same compound, the “MIC ATB combined with Example 7 @8 μgml” value (ECO 190317; with Example 7 at 8 μg/ml) was under 0.031 µg/mL, the “MIC ATB combined with Example 9 @4 μg/ml” value (ECO 190317; with Example 9 @4 μg/ml) was under 0.031 µg/mL and the “MIC ATB combined with Example 9 @4 μg/ml” value (ECO 190317; with Example 9 at 4 μg/ml) was under 0.031 µg/mL.

Source: patent US20200024278A1, “COMPOSITION COMPRISING ANTIBIOTIC COMPOUND AND AN HETEROCYCLIC COMPOUND AND THEIR USE IN PREVENTING OR TREATING BACTERIAL INFECTIONS” (MUTABILIS, priority 2016, published 2020)
